From paper PMC9261792 (Journal of Food and Drug Analysis, 2021)

Target: T1, hSGLT1 (Homo sapiens, UniProt P13866)
T1 sequence (P13866 1-664): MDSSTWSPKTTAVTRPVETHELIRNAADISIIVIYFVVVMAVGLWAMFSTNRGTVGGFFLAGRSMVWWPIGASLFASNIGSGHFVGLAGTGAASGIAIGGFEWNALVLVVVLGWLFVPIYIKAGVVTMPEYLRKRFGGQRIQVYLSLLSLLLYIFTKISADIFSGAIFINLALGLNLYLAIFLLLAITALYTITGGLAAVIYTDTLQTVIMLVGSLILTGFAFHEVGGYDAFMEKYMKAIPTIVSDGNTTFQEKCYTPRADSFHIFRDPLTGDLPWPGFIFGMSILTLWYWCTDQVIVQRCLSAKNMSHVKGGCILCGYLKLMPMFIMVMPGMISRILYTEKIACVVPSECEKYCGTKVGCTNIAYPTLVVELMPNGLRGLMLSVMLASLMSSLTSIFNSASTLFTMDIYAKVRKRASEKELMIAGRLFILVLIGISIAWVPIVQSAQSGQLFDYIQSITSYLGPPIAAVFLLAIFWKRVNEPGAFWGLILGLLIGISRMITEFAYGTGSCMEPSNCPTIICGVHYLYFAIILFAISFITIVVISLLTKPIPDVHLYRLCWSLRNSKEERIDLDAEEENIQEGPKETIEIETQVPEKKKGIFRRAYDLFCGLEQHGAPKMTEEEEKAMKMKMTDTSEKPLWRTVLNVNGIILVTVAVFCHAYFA
Test: 1-NBDG uptake inhibition in COS-7 cells expressing hSGLT1, single dose […]
Format: cell-based
Settings: COS-7, read-out: % Uptake via / hSGLT1

activity at 50 µM: 33.1 ± 0.85%
SMILES: O=C(/C=C/c1ccc(O)cc1)OC[C@H]1O[C@@H](Oc2c(-c3ccc(O)cc3)oc3cc(O)cc(O)c3c2=O)[C@H](O)[C@@H](O)[C@@H]1O [compound 15, Tiliroside]
